Where a name gives a salt, the structure may show the parent alone. Read-outs that look alike come from different tables or passages of the source.
Assays:
[1] = system: Newcastle disease virus Sato strain; type: in vivo, embryonated chick egg; conditions: for MDT (difference from control): Sato strain, 104 hours incubation
[2] = system: Newcastle disease virus I(1) strain; type: in vivo, embryonated chick egg; conditions: 104 hours incubation
[3] = system: Newcastle disease virus Komarov strain; type: in vivo, embryonated chick egg; conditions: for MDT (difference from control): Komarov strain, 104 hours incubation
[4] = system: Newcastle disease virus Miyadera strain; type: in vivo, embryonated chick egg; conditions: for MDT (difference from control): Miyadera strain, 104 hours incubation
[5] = system: vaccinia virus Lister strain; type: in vivo, mice of the ICR strain; conditions: subcutaneous, 4 times first day, twice a day days 2-5, 10th day
[6] = system: Infectious pancrease necrosis virus (IPNV); type: cell-based
[7] = system: Influenza virus A0 /PR-8 strain; type: in vivo, mice of the ICR strain; conditions: intraperitoneal, twice a day for 3 days, mouse lung at 72 hours
[8] = system: Influenza virus A-O/PR-8 strain; type: cell-based
[9] = in vitro; conditions: rainbow trout, rtg-2 cells
[10] = in vitro; conditions: human, hela s3 cells
[11] = system: Herpes virus; type: cell-based
[12] = system: Vaccinia virus Lister strain; type: cell-based
[13] = system: Vesicular stomatitis virus (VSV); type: cell-based
[14] = system: Newcastle disease virus (NDV) Miyadera strain; type: cell-based
[15] = system: mice; conditions: mouse, in vivo, ip
[16] = Vero cell, 37° C., 5-7 days, at MDC, 1/2 or 1/4 MDC, vs control
[17] = HeLa S3 cell, 37° C., 5-7 days, at MDC, 1/2 or 1/4 MDC, vs control
[18] = L-929 cell, 37° C., 5-7 days, at MDC, 1/2 or 1/4 MDC, vs control

| Structure (SMILES) | Difference of -log TCID50 /ml, IPNV [6] | Difference of -log TCID50 /ml, Influenza virus [8, 16] | MCC [9] | MCC [10] | Difference of -log TCID50 /ml, VSV [13, 18] | Difference of -log TCID50 /ml, NDV [14, 17] | further results |
| --- | --- | --- | --- | --- | --- | --- | --- |
| NC(=O)NC[C@H](N)C(=O)O [L-Ureidomethyl glycine] | – | – | – | – | – | – | MDT (difference from control) ([1]; 500 mg per egg): -6.4; MDT (difference from control) ([1]; 1,000 mg per egg): > 4.6; MDT (difference from control) ([2]; 500 mg per egg): > 5.2; MDT (difference from control) ([2]; 1,000 mg per egg): -1.6; MDT (difference from control) ([3]; 500 mg per egg): > 13.8; MDT (difference from control) ([3]; 1,000 mg per egg): > 29.8; MDT (difference from control) ([4]; 500 mg per egg): 3.2; MDT (difference from control) ([4]; 1,000 mg per egg): -6.4; Δlog MLD ([4]; in vivo): 0 |
| NC(=O)NO [Hydroxyurea, reference compound] | – | – | – | – | – | – | Percent of inhibition of pock ([5]; 50 mg/kg): 42.8% |
| Cl.NC12CC3CC(CC(C3)C1)C2 [1-Adamantanamine hydrochloride, reference compound] | 2.75 | > 2.00 | 31.2 µg/mL | 250 µg/mL | – | – | Per cent of Inhibition (virus multiplication, HA units) ([7]; 100 mg/kg): 76% |
| NCC(N)C(=O)O (racemic) [DL-Aminomethyl glycine hydrochloride] | – | 1.00 | 3000 µg/mL | > 1000 µg/mL | 0.33 | 1.50 | Difference of -log TCID50 /ml, Herpes virus [11]: > 2.50; Difference of -log TCID50 /ml, Vaccinia virus [12, 17]: 0.17 |
| N[C@@H](Cc1ccc(O)cn1)C(=O)O | 3.75 | 1.00 | 500 µg/mL | 500 µg/mL | – | > 4.00 | Difference of -log TCID50 /ml, Herpes virus [11]: > 2.50; Percent of inhibition of pock ([5]; 6.2 mg/kg): 56.9%; Per cent of Inhibition (virus multiplication, HA units) ([7]; 50 mg/kg): 52%; Per cent of Inhibition (virus multiplication, HA units) ([7]; 100 mg/kg): 77%; Acute toxicity LD0 [15]: > 1000 mg/kg; Difference of -log TCID50 /ml, Vaccinia virus [12, 17]: > 1.97; MDT (difference from control) ([1]; 500 mg per egg): > 12.1; MDT (difference from control) ([1]; 1,000 mg per egg): > 19.2; Δlog MLD ([1]; in vivo): 0.5; MDT (difference from control) ([2]; 500 mg per egg): > 80.4; MDT (difference from control) ([2]; 1,000 mg per egg): > 16.8; MDT (difference from control) ([3]; 500 mg per egg): 3.2; MDT (difference from control) ([3]; 1,000 mg per egg): 0; Δlog MLD ([3]; in vivo): 1.0; MDT (difference from control) ([4]; 500 mg per egg): -3.1; MDT (difference from control) ([4]; 1,000 mg per egg): 14.8 |
| COC(=O)[C@@H](N)Cc1ccc(O)cn1 [L-p-Hydroxypyridylmethyl glycine methylester hydrochloride] | 3.75 | 1.00 | 1500 µg/mL | 1000 µg/mL | – | 2.00 | Acute toxicity LD0 [15]: > 1000 mg/kg |
| NC(=O)NCC(N)C(=O)O (racemic) [DL-Ureidomethyl glycine] | 3.50 | – | 2000 µg/mL | > 1000 µg/mL | – | 1.17 | – |
| O=C(O)C1NC2CC21 [L-3,5-Cyclo-2-pyrrolidylcarboxylic acid] | 3.50 | 2.00 | 1000 µg/mL | > 1000 µg/mL | – | 0.17 | – |
| NC(Cc1ccc(F)cc1)C(=O)O (racemic) [DL-p-fluoro-phenyl alanine, reference compound] | 0 | 0 | 250 µg/mL | 125 µg/mL | 1.00 | 1.17 | – |
| NC(CCP(=O)(O)O)C(=O)O (racemic) [DL-phosphonoethyl glycine] | 1.30 | – | 4000 µg/mL | 250 µg/mL | – | – | Difference of -log TCID50 /ml, Herpes virus ([11]; Hep No. 2 cell, 37° C., 5-7 days, at MDC, 1/2 or 1/4 MDC, vs control): 0.50; Difference of -log TCID50 /ml, Influenza virus [8]: 1.00; Difference of -log TCID50 /ml, Vaccinia virus [12]: 1.17; Difference of -log TCID50 /ml, VSV [13]: 0.50; Difference of -log TCID50 /ml, NDV [14]: 1.50 |
| NC(Cc1ccc(O)cn1)C(=O)O (racemic) [DL-p-Hydroxypyridylmethyl glycine] | 3.50 | 0.50 | 1000 µg/mL | > 1000 µg/mL | > 2.83 | > 3.00 | – |
| NC(=O)NC[C@H](N)C(=O)O [L-Ureidomethyl glycine hydrochloride] | 3.75 | – | 4000 µg/mL | > 1000 µg/mL | 0.33 | > 4.00 | Difference of -log TCID50 /ml, Herpes virus [11]: 1.50; Difference of -log TCID50 /ml, Vaccinia virus [12, 17]: 1.17 |
| O=C1O[C@H]([C@@H](O)CO)C(O)=C1O [L-Ascorbic acid, reference compound] | – | 0 | 2000 µg/mL | 125 µg/mL | 1.00 | 0.83 | – |
| CP(=O)(O)CC[C@H](N)C(=O)O [L-methylphosphinoethyl glycine, L-Methylphosphinoethyl glycine] | – | – | – | – | – | – | Per cent of Inhibition (virus multiplication, HA units) ([7]; 50 mg/kg): 67%; MDT (difference from control) ([1]; 250 mg per egg): > 30.6; MDT (difference from control) ([1]; 500 mg per egg): > 95.6; MDT (difference from control) ([2]; 250 mg per egg): > 23.2; MDT (difference from control) ([2]; 500 mg per egg): 4.8; MDT (difference from control) ([3]; 250 mg per egg): > 4.8; MDT (difference from control) ([3]; 500 mg per egg): > 27.8; MDT (difference from control) ([4]; 250 mg per egg): 2.4; MDT (difference from control) ([4]; 500 mg per egg): > 45.6 |
| NC[C@H](N)C(=O)O [L-Aminomethyl glycine hydrochloride] | – | 1.00 | 4000 µg/mL | > 1000 µg/mL | 0.67 | 1.50 | Difference of -log TCID50 /ml, Herpes virus [11]: > 2.50; Difference of -log TCID50 /ml, Vaccinia virus [12, 17]: 0.33 |

Source: patent US4216226A (priority 1977, dated 1980)
